The subject of one test is L929 cells. The test can be described thus: TNF High Throughput Screen (TNF-α driven apoptosis assay). It counts as cell-based, mouse. Conditions: Mus musculus, compound at 1 μM, human TNF-α + actinomycin D, read-out: TNFα % Inh. @ 1 μM. The source says: Description of Table V: The results shown in Table V were obtained using the TNF-α assays performed as described in the protocols entitled “Method for TNF High Throughput Screen” and “Method for VCAM High Throughput Screen”, which are detailed below. These assays measure a cellular response to TNF-α stimulation, and the data published in the table are expressed as percentage inhibitions. Percentage inhibition is computed on a scale of 0 to 100% where 0 percent inhibition means the compound has no effect in the assay (the response is indistinguishable from TNF-α treatment alone), and 100% inhibition means that when the compound is present at the stated concentration, the response in the assay is the same as if TNF-α were not added. These two assays measure two different outcomes of TNF-α treatment, cell death and Vascular Cell Adhesion Molecule (VCAM) expression, and capture two of TNF-α's many biological effects. TNF-α induced apoptosis is a mechanism by which TNF-α production during immune/inflammatory responses can lead to direct cellular and tissue damage. TNF-α VCAM expression in endothelial cells is a response that allows leukocytes to leave the blood and enter a site of immune/inflammatory response. Both of these activities could lead to pathology in immune/inflammatory diseases. In the first column of the table, the percentage inhibition of the TNF-α driven apoptosis assay when the compounds are tested at 1 μM concentration is presented. The second column in the table lists the IC50 for the compound, a standard measure using a dilution series in the assay, and fitting a sigmoidal curve to the resulting dose-response curve. The IC50 is the concentration (derived analytically from the sigmoidal function) at which the compound would inhibit 50% of the response in the assay. The third and fourth column list the corresponding analysis for the TNF-α driven VCAM assay. In Table VI, data corresponding to the data in column 1 of Table V is shown, with human cells replacing the mouse cells used in the high throughput screen. […] As a consequence, the compounds will have use in treating more than one TNF-α mediated condition, and may be selected according to the manner in which the condition manifests. This corresponds to the use of these compounds in the treatment of human disease.
TNF High Throughput Screen.
• 1. Plate 4×10^4 L929 cells in 100 μl of complete EMEM in Costar 96 well plates in PM. • 2. The next day, pretreat with compound, inhibitor and control vehicle for 2 hours. • 3. After 2 hours pretreatment, add 10 μl 5 ng/ml human TNF-α and actinomycin D (40 μg/ml final concentration). • 4. Incubate overnight. • 5. In AM, remove supernatant. • 6. Wash on a plate washer (0.9% NaCl). • 7. Add 100 μl Crystal Violet 0.1% in 20% ETOH. • 8. Incubate at RT for 10 minutes. • 9. Wash on plate washer. • 10. Air dry wells at 37° C. • 11. Add 100 μl of methanol to each well. • 12. Shake plates on orbital shaker and read at 595 nm on plate reader. VCAM High Throughput Screen: Protocol: • 1. Plate Primary human umbilical vein endothelial cells at 1.8×10^4 cells/well in a 96-well tissue culture plate. • 2. Return Plates to 37° C. incubator for 48-72 hours before assay. • 3. On assay day, aspirate wells and add 1804, of endothelial growth cell medium (EGM) to each well. • 4. Add Compound to each well. • 5. Shake plates for 3 minutes. • 6. Incubate plate for 1 hour at 37° C. • 7. Add Tumor Necrosis Factor (TNF) at 1.0 ng/ml final concentration. • 8. Shake plates for 3 minutes. • 9. Incubate plate for 2 hours at 37° C. • 10. Remove plate from incubator and wash plate 3 times with phosphate buffered saline (PBS) using a plate washer. • 11. Add anti-VCAM antibody at 0.5 μg/ml final concentration. • 12. Incubate at 4° C. overnight. • 13. Wash 3 times with PBS on plate washer. • 14. Add goat anti-mouse horseradish peroxidase conjugate. • 15. Incubate at room temperature for one hour. • 16. Wash 3 times with PBS on plate washer. • 17. […]
In the case of `COc1ccc(Oc2cccc(C(C(=O)NCc3cc(OC)c(OC)c(OC)c3)N(C(=O)CC(c3ccccc3)c3ccccc3)c3ccccc3C(N)=O)c2)cc1` (stereo not shown) [Compound 57], the inhibition at 1 µM came to 56%.
On the same count and under the same terms, then `O=C(NCC(c1ccccc1)c1ccccc1)C(c1ccccc1)N(CCc1c[nH]cn1)C(=O)c1cccc2c1-c1ccccc1C2` (stereo not shown) [Compound 58], with 50%; and `N#Cc1cccc(C(C(=O)NCC(c2ccccc2)c2ccccc2)N(CCc2c[nH]cn2)C(=O)CCCCc2ccccc2)c1` (stereo not shown) [Compound 60], with 50%.
The same measure, in the same setting: then `O=C(c1ccc(Cl)cc1)c1ccccc1C(=O)N(CCCn1ccnc1)C(C(=O)NCC(c1ccccc1)c1ccccc1)c1ccccc1` (stereo not shown) [Compound 61], with 51%.
On the same count and under the same terms, then `O=C(c1ccccc1)c1ccccc1C(=O)N(CCc1c[nH]cn1)C(C(=O)NCC(c1ccccc1)c1ccccc1)C(c1ccccc1)c1ccccc1` (stereo not shown) [Compound 62], with 59%; and `CN(C)CCCN(C(=O)c1ccccc1C(=O)c1ccccc1)C(C(=O)NC(C)(C)CC(C)(C)C)c1cccc(C#N)c1` (stereo not shown) [Compound 63], with 55%; and `N#Cc1cccc(C(C(=O)NC(Cc2ccccc2)c2ccccc2)N(CCc2c[nH]cn2)C(=O)c2ccccc2C(=O)c2ccc(Cl)cc2)c1` (stereo not shown) [Compound 64], with 63%.
Turning to `CCCCc1ccc(C(=O)N(CCc2c[nH]cn2)C(C(=O)NCCC(c2ccccc2)c2ccccc2)c2ccccc2)cc1` (stereo not shown) [Compound 65], the inhibition at 1 µM was determined as 52%.
Still for that read-out and setting: next, `COc1cccc(C(=O)N(CCc2c[nH]cn2)C(C(=O)NCCC(c2ccccc2)c2ccccc2)c2cccc(C#N)c2)c1OC` (stereo not shown) [Compound 66]: 51%; `N#Cc1cccc(C(C(=O)NCCC(c2ccccc2)c2ccccc2)N(CCc2c[nH]cn2)C(=O)Cc2ccc3ccccc3c2)c1` (stereo not shown) [Compound 67]: 52%; `N#Cc1cccc(C(C(=O)NCCC(c2ccccc2)c2ccccc2)N(CCc2c[nH]cn2)C(=O)c2cccc3ccccc23)c1` (stereo not shown) [Compound 68]: 57%.
With `N#Cc1cccc(C(C(=O)NCCC(c2ccccc2)c2ccccc2)N(CCc2c[nH]cn2)C(=O)CCC2CCCCC2)c1` (stereo not shown) [Compound 69], the inhibition at 1 µM is 61%.
On to `COc1cccc(C(=O)N(CCc2c[nH]cn2)C(C(=O)NCCC(c2ccccc2)c2ccccc2)c2cccc(C#N)c2)c1` (stereo not shown) [Compound 70], for which the inhibition at 1 µM stood at 58%.
Consider `COc1ccc(CCNC(=O)C(c2cccc(C#N)c2)N(CCc2c[nH]cn2)C(=O)c2cccn2C)cc1` (stereo not shown) [Compound 71], for which the inhibition at 1 µM is 57%.
`COc1ccc(CCNC(=O)C(c2cccc(C#N)c2)N(CCc2c[nH]cn2)C(=O)CCC2CCCC2)cc1` (stereo not shown) [Compound 72]: the inhibition at 1 µM was 57%.
Take `COc1ccc(CCNC(=O)C(c2cccc(C#N)c2)N(CCc2c[nH]cn2)C(=O)CCC(C)=O)cc1` (stereo not shown) [Compound 73]: the inhibition at 1 µM was 76%.
With `COc1ccc(CCNC(=O)C(c2cccc(C#N)c2)N(CCc2c[nH]cn2)C(=O)c2cnc3ccccc3n2)cc1` (stereo not shown) [Compound 74], the inhibition at 1 µM came out at 55%.
For `COc1ccc(CCNC(=O)C(c2cccc(C#N)c2)N(CCc2c[nH]cn2)C(=O)Cc2c(C)[nH]c3ccccc23)cc1` (stereo not shown) [Compound 75], the inhibition at 1 µM was found to be 67%.
Still for that read-out and setting: next, `COc1ccc(CCNC(=O)C(c2cccc(C#N)c2)N(CCc2c[nH]cn2)C(=O)CCCc2c[nH]c3ccccc23)cc1` (stereo not shown) [Compound 76]: 56%; `COc1ccc(CCNC(=O)C(c2cccc(C#N)c2)N(CCc2c[nH]cn2)C(=O)Cc2c[nH]c3ccccc23)cc1` (stereo not shown) [Compound 77]: 54%.
Still for that read-out and setting: then `COc1ccc(CCNC(=O)C(c2cccc(C#N)c2)N(CCc2c[nH]cn2)C(=O)Cc2c[nH]c3ccc(Br)cc23)cc1` (stereo not shown) [Compound 78], with 60%.
On the same count and under the same terms, then `COc1ccc(CCNC(=O)C(c2cccc(C#N)c2)N(CCc2c[nH]cn2)C(=O)c2cccc(Cl)c2)cc1` (stereo not shown) [Compound 79], with 62%; and `N#Cc1cccc(C(C(=O)NCC(c2ccccc2)c2ccccc2)N(CCc2c[nH]cn2)C(=O)c2cnc3ccccc3n2)c1` (stereo not shown) [Compound 80], with 53%; and `N#Cc1cccc(C(C(=O)NCC(c2ccccc2)c2ccccc2)N(CCc2c[nH]cn2)C(=O)c2c[nH]nc2N)c1` (stereo not shown) [Compound 81], with 50%.
For `N#Cc1cccc(C(C(=O)NCC(c2ccccc2)c2ccccc2)N(CCc2c[nH]cn2)C(=O)C(O)Cc2c[nH]c3ccccc23)c1` (stereo not shown) [Compound 82], the inhibition at 1 µM worked out at 55%.
As for `N#Cc1cccc(C(C(=O)NCC(c2ccccc2)c2ccccc2)N(CCc2c[nH]cn2)C(=O)c2cccc(F)c2)c1` (stereo not shown) [Compound 83], the inhibition at 1 µM came out at 56%.
On the same count and under the same terms, next, `N#Cc1cccc(C(C(=O)NCC(c2ccccc2)c2ccccc2)N(CCc2c[nH]cn2)C(=O)CCCc2c[nH]c3ccccc23)c1` (stereo not shown) [Compound 84]: 52%.
As for `N#Cc1cccc(C(C(=O)NCC(c2ccccc2)c2ccccc2)N(CCc2c[nH]cn2)C(=O)Cc2c[nH]c3ccc(Br)cc23)c1` (stereo not shown) [Compound 85], the inhibition at 1 µM worked out at 52%.
The same measure, in the same setting: then `COc1cccc(C(=O)N(CCc2c[nH]cn2)C(C(=O)NCC(c2ccccc2)c2ccccc2)c2cccc(C#N)c2)c1` (stereo not shown) [Compound 86], with 53%.
`N#Cc1cccc(C(C(=O)NC(c2ccccc2)c2ccccc2)N(CCc2c[nH]cn2)C(=O)C(O)c2ccccc2)c1` (stereo not shown) [Compound 87]: the inhibition at 1 µM is 50%.
The same measure, in the same setting: then `N#Cc1cccc(C(C(=O)NC(c2ccccc2)c2ccccc2)N(CCc2c[nH]cn2)C(=O)c2ccccc2-c2ccccc2)c1` (stereo not shown) [Compound 88], with 53%; and `N#Cc1cccc(C(C(=O)NC(c2ccccc2)c2ccccc2)N(CCc2c[nH]cn2)C(=O)c2ccccc2Oc2ccccc2)c1` (stereo not shown) [Compound 89], with 56%; and `N#Cc1cccc(C(C(=O)NC(c2ccccc2)c2ccccc2)N(CCc2c[nH]cn2)C(=O)c2cccs2)c1` (stereo not shown) [Compound 90], with 51%.

The same test, now with this note: Mus musculus, human TNF-α + actinomycin D, read-out: TNFα IC50.
Consider `CN(C)CCN(C(=O)c1ccccc1C(=O)c1ccccc1)C(Cc1ccccc1)C(=O)NCC(c1ccccc1)c1ccccc1` (stereo not shown) [Compound 41], for which the IC50 was found to be 6.49 µM.
For `N#Cc1ccc(C(C(=O)NCC(c2ccccc2)c2ccccc2)N(CCc2c[nH]cn2)C(=O)c2ccccc2C(=O)c2ccccc2)cc1` (stereo not shown) [Compound 51], the IC50 came to 3.56 µM.
For the compound `O=C(c1ccccc1)c1ccccc1C(=O)N(CCc1c[nH]cn1)C(C(=O)NCC(c1ccccc1)c1ccccc1)c1ccc(-c2ccccc2)o1` (stereo not shown) [Compound 52], the IC50 stood at 3.49 µM.
Still for that read-out and setting: next, `N#Cc1cccc(C(C(=O)NCC(c2ccccc2)c2ccccc2)N(CCc2c[nH]cn2)C(=O)c2ccccc2COc2ccccc2)c1` (stereo not shown) [Compound 53]: 7.13 µM.
The same measure, in the same setting: then `N#Cc1cccc(C(C(=O)NCC(c2ccccc2)c2ccccc2)N(CCc2c[nH]cn2)C(=O)c2ccccc2C(=O)OCc2ccccc2)c1` (stereo not shown) [Compound 55], with 7.64 µM.
On the same count and under the same terms, next, `CN(C)CCN(C(=O)c1ccccc1C(=O)c1ccccc1)C(C(=O)NCC(c1ccccc1)c1ccccc1)c1ccccc1` (stereo not shown) [Compound 56]: 6.63 µM.

The test is the same for the next values; noted with them: human TNF-α + actinomycin D, read-out: TNFα IC50.
As for `O=C(c1ccccc1)c1ccccc1C(=O)N(CCc1c[nH]cn1)[C@H](Cc1ccccc1)C(=O)NCC(c1ccccc1)c1ccccc1` [Compound 47, 2-Benzoyl-N-[(1′R)-1′(2,2′-diphenyl-ethylcarbamoyl)-2′-phenyl-ethyl]-N-[2-(1H-imidazol-4-yl)-ethyl]-benzamide], the IC50 came out at 5.58 µM.

What is called IC50 is the midpoint of a concentration-inhibition curve.

For the origin of these results see patent US9579325B2, “Modulators of TNF-α signaling” (Genzyme Corporation, priority 2000, dated 2017).
